Results taken from the supplement of paper PMC10307832.

Columns and labels:
Test in all cases: relative viability (nuclei count vs DMSO), 5 days (fraction); higher = more cells survive
IU1-47 + Lapatinib = compound: CC1=CC(=C(N1C2=CC=C(C=C2)Cl)C)C(=O)CN3CCCCC3 [IU1-47] + CS(=O)(=O)CCNCc1ccc(-c2ccc3ncnc(Nc4ccc(OCc5cccc(F)c5)c(Cl)c4)c3c2)o1 [Lapatinib] (partner 2 µM)
Method in brief: (§1)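 Lung cancer cell lines, seeded in 1536-well plates, were treated the following day by pin tool with a single drug or with five library-drug doses (not always all listed) in √10 steps on top of a fixed anchor-drug dose. Cells were fixed and nuclei stained in one step after 5 days, and nuclei were counted. Relative viability is the nuclei count for treated wells divided by that for vehicle wells, reported as medians of duplicate plates.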

IU1-47 + Olaparib = compound: CC1=CC(=C(N1C2=CC=C(C=C2)Cl)C)C(=O)CN3CCCCC3 [IU1-47] + O=C(c1cc(Cc2n[nH]c(=O)c3ccccc23)ccc1F)N1CCN(C(=O)C2CC2)CC1 [Olaparib] (partner 8 µM)
Method in brief: as §1

FG-4592 + Tozasertib = compound: Cc1nc(C(=O)NCC(=O)O)c(O)c2ccc(Oc3ccccc3)cc12 [FG-4592] + Cc1cc(Nc2cc(N3CCN(C)CC3)nc(Sc3ccc(NC(=O)C4CC4)cc3)n2)n[nH]1 [Tozasertib] (partner 0.1 µM)
Method in brief: as §1

FG-4592 + Decitabine = compound: Cc1nc(C(=O)NCC(=O)O)c(O)c2ccc(Oc3ccccc3)cc12 [FG-4592] + Nc1ncn([C@H]2C[C@H](O)[C@@H](CO)O2)c(=O)n1 [Decitabine] (partner 2 µM)
Method in brief: as §1

Cell Line	relative viability (IU1-47 + Lapatinib; first compound 0.08 µM)	relative viability (IU1-47 + Lapatinib; first compound 0.253 µM)	relative viability (IU1-47 + Lapatinib; first compound 0.8 µM)	relative viability (IU1-47 + Lapatinib; first compound 2.53 µM)	relative viability (IU1-47 + Lapatinib; first compound 8 µM)	relative viability (IU1-47 + Olaparib; first compound 0.08 µM)	relative viability (IU1-47 + Olaparib; first compound 0.253 µM)	relative viability (IU1-47 + Olaparib; first compound 0.8 µM)	relative viability (IU1-47 + Olaparib; first compound 2.53 µM)	relative viability (IU1-47 + Olaparib; first compound 8 µM)	relative viability (FG-4592 + Tozasertib; first compound 0.08 µM)	relative viability (FG-4592 + Tozasertib; first compound 0.253 µM)	relative viability (FG-4592 + Tozasertib; first compound 0.8 µM)	relative viability (FG-4592 + Tozasertib; first compound 2.53 µM)	relative viability (FG-4592 + Tozasertib; first compound 8 µM)	relative viability (FG-4592 + Decitabine; first compound 0.08 µM)	relative viability (FG-4592 + Decitabine; first compound 0.253 µM)	relative viability (FG-4592 + Decitabine; first compound 0.8 µM)	relative viability (FG-4592 + Decitabine; first compound 2.53 µM)	relative viability (FG-4592 + Decitabine; first compound 8 µM)
HOP-62	1.14	1.01	1.12	0.844	0.954	0.428	0.622	0.404	0.554	0.604	0.406	0.393	0.381	0.367	0.41	0.216	0.219	0.223	0.199	0.185
LC-2-ad	1.09	0.928	0.836	1.25	1.04	0.726	0.711	0.673		0.732	0.545	0.433		0.421	0.465	0.804	0.66	0.755	0.853	0.837
LCLC-97TM1	1.34	0.635	0.92		0.78	0.44	0.461	0.352		0.21	0.173	0.214	0.23	0.244	0.18	0.218	0.209		0.217	0.173
LK-2	1.15	1.26	0.963	0.703	0.517	0.935	0.958	0.802	0.745	0.641	0.155	0.17		0.175	0.186	0.273	0.272	0.274	0.371	0.295
LOU-NH91	0.784	0.877	0.812	0.762	0.702	1.02	0.995	0.877	0.966	0.886	0.709	0.669	0.696	0.634	0.717	0.861	0.802	0.814	0.802	0.812
LU99A	0.933	1.07	1.16	1.02	1	0.233	0.273	0.272	0.265	0.245	0.289	0.293	0.243	0.334	0.297	0.842	0.796		0.906	0.795
LXF-289	0.935	0.921	0.877	0.911	0.819	1.08	1.15	1.09	0.993	0.862	0.186	0.16	0.214	0.177	0.205	0.425	0.386	0.35	0.378	0.305
NCI-H23	1.04	1.05	1.26	0.995	1.25	0.288		0.281	0.385	0.257	0.412	0.4	0.418	0.346	0.431	0.322	0.268	0.334	0.265	0.267
NCI-H322M	0.574	0.622	0.507	0.633	0.561	0.838	0.838	0.813	0.845	0.757	0.469	0.46	0.442	0.518	0.396		0.658	0.714	0.638	0.725
NCI-H358	0.445	0.381	0.481		0.456	0.704	0.784	0.55	0.705	0.436	0.106	0.111	0.115	0.113	0.091	0.213	0.194	0.288	0.192	0.202
NCI-H460	1.2	1.14	0.997	0.655	0.7	0.545	0.407	0.501	0.398	0.35	0.381	0.419	0.42	0.592	0.487	0.448	0.461	0.51	0.482	0.51
NCI-H520	0.774	0.858	1	0.879	0.59	0.32	0.391	0.269	0.349	0.309		0.479		0.479	0.391	0.454	0.443	0.493	0.577	0.434
NCI-H596	1.04	1.11	1.02	1.2	0.989	0.676		0.754	0.718	0.632	0.975	0.916	0.867	0.893	0.682	0.92	1.01		0.897	0.8
NCI-H647	1.02	1.22	1.37	1.22	0.49	0.661	0.755	0.556	0.783	0.333	0.365	0.302	0.311	0.264	0.166	0.347	0.326	0.341	0.372	0.227
NCI-H650	0.854	0.934	0.656	1.03	0.74	0.447	0.426	0.378	0.4	0.413	0.73	0.703	0.746	0.691	0.697	0.314	0.275	0.301	0.296	0.306
NCI-H661	0.562	0.546	0.51	0.338	0.552	0.798	0.735	0.807	0.801	0.589	0.365	0.371	0.347	0.359	0.343	0.526	0.469	0.563	0.535	0.484
NCI-H727	0.762		1.11	0.642	0.833	0.661	0.729	0.691	0.64	0.66	0.608	0.591	0.757	0.807	0.678	0.889	0.663	1.15	0.9	0.84

Cell Line	relative viability (IU1-47 + Lapatinib; first compound 0.08 µM)	relative viability (IU1-47 + Lapatinib; first compound 0.253 µM)	relative viability (IU1-47 + Lapatinib; first compound 0.8 µM)	relative viability (IU1-47 + Lapatinib; first compound 2.53 µM)	relative viability (IU1-47 + Lapatinib; first compound 8 µM)	relative viability (IU1-47 + Olaparib; first compound 0.08 µM)	relative viability (IU1-47 + Olaparib; first compound 0.253 µM)	relative viability (IU1-47 + Olaparib; first compound 0.8 µM)	relative viability (IU1-47 + Olaparib; first compound 2.53 µM)	relative viability (IU1-47 + Olaparib; first compound 8 µM)	relative viability (FG-4592 + Tozasertib; first compound 0.08 µM)	relative viability (FG-4592 + Tozasertib; first compound 0.253 µM)	relative viability (FG-4592 + Tozasertib; first compound 0.8 µM)	relative viability (FG-4592 + Tozasertib; first compound 2.53 µM)	relative viability (FG-4592 + Tozasertib; first compound 8 µM)	relative viability (FG-4592 + Decitabine; first compound 0.08 µM)	relative viability (FG-4592 + Decitabine; first compound 0.253 µM)	relative viability (FG-4592 + Decitabine; first compound 0.8 µM)	relative viability (FG-4592 + Decitabine; first compound 2.53 µM)	relative viability (FG-4592 + Decitabine; first compound 8 µM)
NCI-H838	0.922	0.889	1.23	1.01	0.888	0.809	0.799	0.774	0.911	0.58	0.296	0.246	0.279	0.242	0.26	0.456	0.439	0.446	0.459	0.443
NCI-H1355	1.11	1.11	1.08	0.627	0.983	0.781	0.826	0.751		0.781	0.525	0.551	0.55	0.573	0.521	0.355	0.297		0.378	0.307
NCI-H1395	0.968	0.96	1.08		0.892	0.46	0.432	0.44	0.452	0.412	0.775	0.728	0.702	0.75	0.791	0.766	0.677	0.75	0.686	0.614
NCI-H1437	0.726	0.716	0.801	0.76	0.744	0.623	0.615	0.618	0.633	0.549	0.397	0.384	0.458	0.375	0.33	0.576	0.512	0.606	0.632	0.534
NCI-H1650	0.755	0.717	0.935	0.57	0.351	0.756	0.797	0.736	0.968	0.797	0.409	0.277	0.427	0.456	0.406	0.504	0.378	0.358	0.421	0.331
NCI-H1651	0.735	0.743	0.913		0.943	0.155	0.162	0.17	0.183	0.185	0.773	0.653	0.742	0.629	0.569	0.713	0.603	0.703	0.668	0.499
NCI-H1666	0.613	0.658	0.621	0.584	0.508	0.757	0.681	0.79	0.713	0.759	0.651	0.592	0.594	0.657	0.56	0.836	0.724	0.867	0.711	0.759
NCI-H1734	1.05	1.15	1.12		1.02	0.669	0.75	0.631	0.608	0.656	0.284	0.267	0.256	0.252	0.217	0.519	0.463	0.53	0.489	0.458
NCI-H1755	1.17	1.1	1.15	1.11	0.872	0.914	0.872	0.883	0.948	0.829	0.56	0.51	0.568	0.678	0.655	0.697	0.773	0.736	0.679	0.689
NCI-H1793	0.525	0.594	0.648		0.566	0.861		1.1	1.01	0.87	0.435	0.388		0.362	0.317		0.476		0.55	0.398
NCI-H1915	0.992	1.01	0.976		0.999	0.251	0.267	0.267	0.252	0.261	0.405	0.439	0.497	0.444	0.369	0.271	0.28	0.284	0.255	0.252
NCI-H1944	0.835	0.845	0.779		0.801	0.433	0.409	0.398	0.356	0.427	0.254	0.252	0.224	0.242	0.254	0.422	0.446	0.415	0.436	0.388
NCI-H1975	0.844	0.879	0.934	0.883	0.846	0.858	0.773	0.748	1.02	0.78	0.772	0.78	0.868	0.783	0.683	0.378	0.363	0.426	0.406	0.404
NCI-H1993	0.82	0.754	0.741	0.815	0.748	1.22	1.01	1.08	1.08	1.14	0.613	0.584	0.604	0.441	0.548	0.695	0.602		0.665	0.572
NCI-H2009	0.997	1.03	1.07	0.43	1.54	0.662	0.678	0.612	0.804	0.65	0.715	0.58	0.758	0.713	0.655	0.406	0.339	0.381	0.343	0.349
NCI-H2023	0.924	0.872	0.805	0.334	0.994	0.454	0.639	0.49	0.44	0.479	0.354	0.357	0.374	0.348	0.258	0.231	0.209	0.222	0.243	0.203
